Columns and labels:
Assay in all cases: TMT LC-MSMS of 11-labelled proteins
Type in all cases: cell-based
[1] = biological target: ATP synthase subunit alpha, mitochondrial (ATP5A1) (Homo sapiens, UniProt P25705)
Description: (§1) The labelled proteins were enriched by immunoprecipitation with an anti-fluorescein antibody and tryptically digested in gel. Digested peptides were modified with Light- (L-), Medium- (M-), or Heavy- (H-) TMT reagent for samples treated with 11, 11 with PU-H71 (as competitive condition), or DMSO (vehicle), respectively, and mixed in a 1:1:1 ratio for LC-MSMS analysis. We performed three experimental replicates, in which proteins detected and quantified at least twice were selected as identified proteins. According to the related approach of Cravatt et al[44], the proteins having L/H (11/DMSO) ratios >5 were defined as 11-labelled proteins. […] On the basis of these criteria, we identified 6 proteins that react with 11, including three ligand-specific targets (Hsp90α (HSP90AA1), Hsp90β (HSP90AB1), and Grp94 (HSP90B1)) and three off-targets (Trifunctional enzyme subunit α (HADHA), Tubulin-α (TUBA1B), and ADP/ATP translocase 3 (SLC25A6)) (Fig. 5d, e and Supplementary Data 1). […] Grp94, a HSP90 isomer, was previously reported to be a PU-H71 specific target. TRAP-1, another Hsp90 isomer that can bind PU-H71, on the other hand, was not identified as 11-target by our criteria.
(§2) SKBR3 human breast cancer cells (2.0 × 10^6 cells) were seeded on a 10 cm dish and cultured for 3 days in McCoy’s 5A in a 5% CO2 humidified chamber at 37 °C. […] As competitive experiments, the labelling was conducted in the presence of PU-H71 (10 µM). After labelling, the cells were washed twice with PBS, and lysed with RIPA buffer. […] The supernatant was mixed with chilled acetone and incubated overnight at −80 °C. The protein precipitates were solubilized by sonication in 1 mL of RIPA buffer containing 1% SDS, and then 10-fold diluted with RIPA buffer to reduce SDS concentration to c.a. 0.1%. The protein solution (containing 1 mg of protein) was mixed with Protein G Sepharose 4 Fast Flow (GE Healthcare) and rotated at 4 °C for 1 h. After removal of the beads, the remaining supernatant was mixed with anti-fluorescein antibody (Abcam, ab19491, 7:10000) and rotated at 4 °C for 1 h, followed by addition of fresh Protein G Sepharose 4 Fast Flow and further incubation at 4 °C for 4 h. The beads were washed five times with RIPA buffer and once with PBS. Proteins were eluted from the beads by addition of 2 × sample buffer containing 100 mM DTT and boiling at 95 °C for 5 min. The samples were subjected to a 7.5% SDS–PAGE gel (Mini-PROTEAN TGX Gels, BioRad), and electrophoresed as the migration distance of dye front is about 10 mm. Each lane was excised (height, 10 mm), and treated with a 47.5% methanol / 47.5% pure water / 5% acetic acid for 20 min, a 50% methanol / 50% pure water for 10 min, and in pure water for 10 min. The gel pieces were dehydrated with 100% acetonitrile, and then swelled with 200 μL of 100 mM TEAB (triethylamine bicarbonate) buffer containing 10 mM DTT and heated at 56 °C for 30 min. The solutions were replaced with 200 µL of 100 mM TEAB buffer containing 55 mM iodoacetamide and incubated for 45 min in the dark. The gel pieces were washed with 100 mM TEAB buffer and dehydrated in acetonitrile. This step was repeated once. The gels were reswelled in 100 mM TEAB buffer containing 10 ng/μL Sequencing Grade Trypsin (Promega) and incubated overnight at 37 °C. To the gels, 50 μL of an extraction solution (50% acetonitrile, 0.1% TFA) was added. After 10 min incubation, the supernatants were collected to new tubes, and this process was repeated twice. Extracted peptides were dried in vacuo and reconstituted with 25 μL of 100 mM TEAB buffer.

[2] = biological target: T1, Aldehyde dehydrogenase family 1 member A3 (ALDH1A3) (Homo sapiens, UniProt P47895)
T1 sequence (P47895 1-512): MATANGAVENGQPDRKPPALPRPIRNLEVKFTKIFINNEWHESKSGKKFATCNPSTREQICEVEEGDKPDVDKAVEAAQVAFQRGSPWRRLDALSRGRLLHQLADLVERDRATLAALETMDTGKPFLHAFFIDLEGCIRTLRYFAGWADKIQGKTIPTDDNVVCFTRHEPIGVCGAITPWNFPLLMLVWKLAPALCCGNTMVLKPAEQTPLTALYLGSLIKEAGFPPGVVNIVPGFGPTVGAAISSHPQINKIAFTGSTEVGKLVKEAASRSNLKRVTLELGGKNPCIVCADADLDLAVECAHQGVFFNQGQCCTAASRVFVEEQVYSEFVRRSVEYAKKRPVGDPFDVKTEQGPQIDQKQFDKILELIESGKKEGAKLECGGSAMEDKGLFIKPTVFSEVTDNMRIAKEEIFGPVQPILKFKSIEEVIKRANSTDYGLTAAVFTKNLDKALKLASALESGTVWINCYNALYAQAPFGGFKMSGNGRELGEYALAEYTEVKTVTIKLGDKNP
Description: as §1, §2

[3] = biological target: Cytochrome b-c1 complex subunit 1, mitochondrial (UQCRC1) (Homo sapiens, UniProt P31930)
Description: as §1, §2

[4] = biological target: Trifunctional enzyme subunit alpha, mitochondrial (HADHA) (Homo sapiens, UniProt P40939)
Description: as §1, §2

[5] = sheet Exp1, SKBR3 cells, 11 0.5 µM 3 h vs DMSO
[6] = sheet Exp1, SKBR3 cells, 11 0.5 µM 3 h vs with PU-H71 10 µM
[7] = sheet Merged, SKBR3 cells, 11 0.5 µM 3 h vs DMSO
[8] = sheet Merged, SKBR3 cells, 11 0.5 µM 3 h vs with PU-H71 10 µM

Sequence of Trifunctional enzyme subunit alpha, mitochondrial (HADHA) (P40939 37-763): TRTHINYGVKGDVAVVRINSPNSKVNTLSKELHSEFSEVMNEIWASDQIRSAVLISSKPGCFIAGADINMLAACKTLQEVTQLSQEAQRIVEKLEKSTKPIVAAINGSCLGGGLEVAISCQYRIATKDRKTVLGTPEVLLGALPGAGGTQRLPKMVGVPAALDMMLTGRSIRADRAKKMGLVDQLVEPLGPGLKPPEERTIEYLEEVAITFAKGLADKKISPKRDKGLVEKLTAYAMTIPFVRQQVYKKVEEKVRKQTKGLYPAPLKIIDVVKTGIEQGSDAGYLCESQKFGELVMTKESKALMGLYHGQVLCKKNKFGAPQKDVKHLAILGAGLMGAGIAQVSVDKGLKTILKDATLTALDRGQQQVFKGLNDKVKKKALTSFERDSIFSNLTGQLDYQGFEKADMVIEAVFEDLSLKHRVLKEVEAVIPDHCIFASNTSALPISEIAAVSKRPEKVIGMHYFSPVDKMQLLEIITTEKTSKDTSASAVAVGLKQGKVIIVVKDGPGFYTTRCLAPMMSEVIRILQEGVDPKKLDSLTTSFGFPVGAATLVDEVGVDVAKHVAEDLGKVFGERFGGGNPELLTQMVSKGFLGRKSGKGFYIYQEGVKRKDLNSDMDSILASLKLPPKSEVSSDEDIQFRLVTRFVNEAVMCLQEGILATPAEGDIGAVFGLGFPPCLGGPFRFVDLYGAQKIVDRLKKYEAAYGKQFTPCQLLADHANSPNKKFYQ
Sequence of Trifunctional enzyme subunit alpha, mitochondrial (HADHA) (P55084 34-474 partner): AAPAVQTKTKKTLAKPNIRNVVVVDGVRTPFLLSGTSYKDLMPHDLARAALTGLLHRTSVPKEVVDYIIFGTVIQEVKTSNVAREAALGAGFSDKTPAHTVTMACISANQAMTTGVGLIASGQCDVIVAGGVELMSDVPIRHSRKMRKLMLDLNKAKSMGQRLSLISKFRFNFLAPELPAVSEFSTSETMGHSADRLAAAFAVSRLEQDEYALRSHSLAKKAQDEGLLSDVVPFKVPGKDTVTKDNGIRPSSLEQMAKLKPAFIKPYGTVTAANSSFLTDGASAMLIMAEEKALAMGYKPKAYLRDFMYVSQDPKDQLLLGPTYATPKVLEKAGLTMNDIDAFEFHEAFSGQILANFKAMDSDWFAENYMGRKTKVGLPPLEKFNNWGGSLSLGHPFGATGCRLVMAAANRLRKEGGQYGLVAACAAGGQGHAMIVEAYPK

Compound: CC(=O)Oc1ccc2c(c1)Oc1cc(OC(C)=O)ccc1C21OC(=O)c2cc(C(=O)NCCOCCOCCNC(=O)CCCC(=O)N(CC#N)S(=O)(=O)c3ccc(C(=O)NCCCn4c(Sc5cc6c(cc5I)OCO6)nc5c(N)ncnc54)cc3)ccc21 [compound 11]
- Abundance Ratio: (11) / (11 with PU-H71) ([1]; Exp3, ATP5A1): 0.84
- Abundance Ratio: (11) / (DMSO) ([1]; Exp3, ATP5A1): 3.573
- Abundances (Grouped): 11 ([1]; Exp3, ATP5A1): 381.2
- Abundances (Grouped): 11 with PU-H71 ([1]; Exp3, ATP5A1): 453.7
- Abundance Ratio: (11) / (DMSO) [1, 5]: 3.323
- Abundance Ratio: (11) / (11 with PU-H71) [1, 6]: 0.923
- Abundance Ratio: (11) / (11 with PU-H71) ([1]; sheet Exp2, ATP5A1): 0.771
- Abundance Ratio: (11) / (DMSO) ([1]; sheet Exp2, ATP5A1): 3.865
- Abundances (Grouped): 11 ([1]; sheet Exp2, ATP5A1): 390.8
- Abundances (Grouped): 11 with PU-H71 ([1]; sheet Exp2, ATP5A1): 506.9
- Abundance Ratio: (11) / (DMSO) [1, 7]: 3.663
- Abundance Ratio: (11) / (11 with PU-H71) [1, 8]: 0.771
- Abundance Ratio: (11) / (11 with PU-H71) ([2]; Exp3, ALDH1A3): 0.892
- Abundance Ratio: (11) / (DMSO) ([2]; Exp3, ALDH1A3): 4.34
- Abundances (Grouped): 11 ([2]; Exp3, ALDH1A3): 42.1
- Abundances (Grouped): 11 with PU-H71 ([2]; Exp3, ALDH1A3, with PU-H71): 47.2
- Abundance Ratio: (11) / (DMSO) [2, 5]: 5.076
- Abundance Ratio: (11) / (11 with PU-H71) [2, 6]: 0.894
- Abundance Ratio: (11) / (DMSO) [2, 7]: 4.694
- Abundance Ratio: (11) / (11 with PU-H71) [2, 8]: 0.893
- Abundance Ratio: (11) / (11 with PU-H71) ([3]; Exp3, UQCRC1): 0.7
- Abundance Ratio: (11) / (DMSO) ([3]; Exp3, UQCRC1): 3
- Abundances (Grouped): 11 ([3]; Exp3, UQCRC1): 50.1
- Abundances (Grouped): 11 with PU-H71 ([3]; Exp3, UQCRC1): 71.6
- Abundance Ratio: (11) / (11 with PU-H71) ([3]; sheet Exp2, UQCRC1): 0.772
- Abundance Ratio: (11) / (DMSO) ([3]; sheet Exp2, UQCRC1): 3.724
- Abundances (Grouped): 11 ([3]; sheet Exp2, UQCRC1): 60.7
- Abundances (Grouped): 11 with PU-H71 ([3]; sheet Exp2, UQCRC1): 78.6
- Abundance Ratio: (11) / (DMSO) [3, 7]: 3.342
- Abundance Ratio: (11) / (11 with PU-H71) [3, 8]: 0.735
- Abundance Ratio: (11) / (11 with PU-H71) ([4]; Exp3, HADHA): 0.887
- Abundance Ratio: (11) / (DMSO) ([4]; Exp3, HADHA): 5.561
- Abundances (Grouped): 11 ([4]; Exp3, HADHA): 1575.4
- Abundances (Grouped): 11 with PU-H71 ([4]; Exp3, HADHA): 1776.8
- Abundance Ratio: (11) / (DMSO) [4, 5]: 7.409
- Abundance Ratio: (11) / (11 with PU-H71) [4, 6]: 0.838
- Abundance Ratio: (11) / (11 with PU-H71) ([4]; sheet Exp2, HADHA): 0.82
- Abundance Ratio: (11) / (DMSO) ([4]; sheet Exp2, HADHA): 5.216
- Abundances (Grouped): 11 ([4]; sheet Exp2, HADHA): 1189.7
- Abundances (Grouped): 11 with PU-H71 ([4]; sheet Exp2, HADHA): 1451.4
- Abundance Ratio: (11) / (DMSO) [4, 7]: 7.058
- Abundance Ratio: (11) / (11 with PU-H71) [4, 8]: 0.838

From article PMC5951806, “Rapid labelling and covalent inhibition of intracellular native proteins using ligand-directed N-acyl-N-alkyl sulfonamide” (Nature Communications, 2018)
